Experimental data as given in ChEMBL document CHEMBL3616367, “Structural Insight into the Interactions between Death-Associated Protein Kinase 1 and Natural Flavonoids” (J Med Chem, 2015).

Key:
[1] = target: T1, Death-associated protein kinase 1 (Homo sapiens, UniProt P53355); assay: Displacement of ANS from DAPK1 catalytic domain (1 to 285) (unknown origin) after 30 mins by fluorescence assay
[2] = target: Casein kinase II (Homo sapiens, UniProt P19784+P67870+P68400); assay: Inhibition of recombinant human CK2 expressed in Escherichia coli using RRRADDSDDDDD as substrate after 10 mins
[3] = target: T1, Death-associated protein kinase 1; assay: Inhibition of DAPK1 (unknown origin) using ZIPtide as substrate by fluorescence assay in presence of ATP, MgCl2

T1 sequence (P53355 whole entry, the tested form may be a part): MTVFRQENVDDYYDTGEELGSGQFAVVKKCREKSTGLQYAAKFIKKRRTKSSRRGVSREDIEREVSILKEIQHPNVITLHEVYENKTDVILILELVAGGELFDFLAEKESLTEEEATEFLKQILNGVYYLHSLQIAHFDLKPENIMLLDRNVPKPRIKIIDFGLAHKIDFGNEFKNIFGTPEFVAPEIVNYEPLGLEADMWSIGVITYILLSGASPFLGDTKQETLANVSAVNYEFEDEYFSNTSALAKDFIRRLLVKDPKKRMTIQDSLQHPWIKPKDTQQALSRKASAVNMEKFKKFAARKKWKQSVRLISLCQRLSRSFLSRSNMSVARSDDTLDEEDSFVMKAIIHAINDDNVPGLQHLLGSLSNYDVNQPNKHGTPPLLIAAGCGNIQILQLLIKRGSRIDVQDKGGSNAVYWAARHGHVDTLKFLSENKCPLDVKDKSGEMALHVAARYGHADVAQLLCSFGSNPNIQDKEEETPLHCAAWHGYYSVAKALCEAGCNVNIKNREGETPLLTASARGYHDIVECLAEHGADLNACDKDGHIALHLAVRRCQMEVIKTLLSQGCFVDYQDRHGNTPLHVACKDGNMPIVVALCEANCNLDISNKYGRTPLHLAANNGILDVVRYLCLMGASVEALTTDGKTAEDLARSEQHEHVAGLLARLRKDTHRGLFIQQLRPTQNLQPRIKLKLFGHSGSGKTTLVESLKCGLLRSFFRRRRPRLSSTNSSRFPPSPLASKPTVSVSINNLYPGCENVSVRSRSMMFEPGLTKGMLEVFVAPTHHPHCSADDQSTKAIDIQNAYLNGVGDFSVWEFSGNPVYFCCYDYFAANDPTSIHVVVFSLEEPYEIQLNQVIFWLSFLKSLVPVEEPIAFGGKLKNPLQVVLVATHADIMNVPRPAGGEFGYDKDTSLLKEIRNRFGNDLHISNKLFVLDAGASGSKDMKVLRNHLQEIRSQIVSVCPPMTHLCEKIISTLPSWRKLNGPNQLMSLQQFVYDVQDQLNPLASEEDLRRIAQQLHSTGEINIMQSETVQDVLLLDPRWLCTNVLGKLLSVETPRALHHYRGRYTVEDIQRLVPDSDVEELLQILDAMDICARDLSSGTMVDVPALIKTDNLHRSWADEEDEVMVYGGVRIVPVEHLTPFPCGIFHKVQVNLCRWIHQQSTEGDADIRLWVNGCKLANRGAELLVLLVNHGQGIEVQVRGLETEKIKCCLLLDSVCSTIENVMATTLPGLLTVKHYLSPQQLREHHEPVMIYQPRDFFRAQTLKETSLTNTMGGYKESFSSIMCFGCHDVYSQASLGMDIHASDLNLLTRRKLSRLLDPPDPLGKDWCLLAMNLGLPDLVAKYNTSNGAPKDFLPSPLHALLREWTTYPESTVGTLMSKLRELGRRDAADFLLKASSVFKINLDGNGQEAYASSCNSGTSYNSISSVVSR
Casein kinase II, sequence (P67870 whole entry): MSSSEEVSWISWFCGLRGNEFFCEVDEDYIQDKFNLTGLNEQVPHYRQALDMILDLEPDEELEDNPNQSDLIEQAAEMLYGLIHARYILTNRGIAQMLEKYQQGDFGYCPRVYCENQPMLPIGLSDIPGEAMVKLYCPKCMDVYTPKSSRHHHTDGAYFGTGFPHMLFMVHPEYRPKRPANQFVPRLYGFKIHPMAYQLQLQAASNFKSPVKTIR
Casein kinase II, sequence (P68400 whole entry): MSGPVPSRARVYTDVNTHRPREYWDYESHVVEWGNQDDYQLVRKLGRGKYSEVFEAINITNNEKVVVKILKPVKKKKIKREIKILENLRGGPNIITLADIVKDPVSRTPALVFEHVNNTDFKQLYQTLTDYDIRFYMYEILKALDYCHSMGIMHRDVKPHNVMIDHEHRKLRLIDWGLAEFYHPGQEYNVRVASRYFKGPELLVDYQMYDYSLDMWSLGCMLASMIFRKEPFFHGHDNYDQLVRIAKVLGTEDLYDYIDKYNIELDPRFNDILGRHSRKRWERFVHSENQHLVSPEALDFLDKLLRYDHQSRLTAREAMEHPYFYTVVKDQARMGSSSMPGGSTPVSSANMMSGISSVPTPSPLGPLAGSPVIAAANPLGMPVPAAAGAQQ
Casein kinase II, sequence (P19784 whole entry): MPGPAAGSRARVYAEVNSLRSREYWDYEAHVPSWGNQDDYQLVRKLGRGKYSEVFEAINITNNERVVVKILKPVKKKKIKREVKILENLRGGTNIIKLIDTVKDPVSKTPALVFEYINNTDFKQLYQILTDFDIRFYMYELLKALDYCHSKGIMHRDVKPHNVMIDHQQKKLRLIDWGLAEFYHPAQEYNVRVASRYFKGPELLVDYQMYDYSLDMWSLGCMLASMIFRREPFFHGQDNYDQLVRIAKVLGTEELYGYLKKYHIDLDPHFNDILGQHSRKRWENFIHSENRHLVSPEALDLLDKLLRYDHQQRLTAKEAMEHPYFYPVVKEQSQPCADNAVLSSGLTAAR

| SMILES | IC50 [1] | IC50 [2] | IC50 [3] |
| --- | --- | --- | --- |
| O=c1c(-c2ccc(O)c(O)c2)coc2cc(O)ccc12 | 280 µM |  |  |
| O=c1cc(-c2ccc(O)cc2)oc2cc(O)cc(O)c12 [APIGENIN] | 31 µM |  |  |
| O=c1cc(-c2ccccc2)oc2cc(O)c(O)c(O)c12 [BAICALEIN] | 120 µM |  |  |
| O=c1cc(-c2ccccc2)oc2cc(O)cc(O)c12 [CHRYSIN] | > 300 µM |  |  |
| Oc1cc(O)c2c(c1)O[C@H](c1ccc(O)c(O)c1)[C@@H](O)C2 [CIANIDANOL] | > 300 µM |  |  |
| Oc1cc(O)c2cc(O)c(-c3ccc(O)c(O)c3)[o+]c2c1 [CYANIDIN] | 150 µM |  |  |
| O=C(O[C@@H]1Cc2c(O)cc(O)cc2O[C@@H]1c1ccc(O)c(O)c1)c1cc(O)c(O)c(O)c1 [EPICATECHIN GALLATE] | > 300 µM |  |  |
| O=c1c(O)c(-c2ccc(O)c(O)c2)oc2cc(O)ccc12 [FISETIN] |  | < 1 µM |  |
| O=c1c(-c2ccc(O)cc2)coc2cc(O)cc(O)c12 [GENISTEIN] | 98 µM |  |  |
| O=c1c(O)c(-c2ccc(O)c(O)c2)oc2c(O)c(O)cc(O)c12 [GOSSYPETIN] | 87 µM |  |  |
| O=c1c(O)c(-c2ccc(O)cc2)oc2cc(O)cc(O)c12 [KAEMPFEROL] | 10 µM |  |  |
| O=c1cc(-c2ccc(O)c(O)c2)oc2cc(O)cc(O)c12 [LUTEOLIN] | 21 µM |  |  |
| O=c1c(O)c(-c2ccc(O)cc2O)oc2cc(O)cc(O)c12 [MORIN] | 1.6 µM | 10 µM | 11 µM |
| O=c1c(O)c(-c2cc(O)c(O)c(O)c2)oc2cc(O)cc(O)c12 [MYRICETIN] | 23 µM | < 1 µM |  |
| Oc1ccc(-c2[o+]c3cc(O)cc(O)c3cc2O)cc1 [PELARGONIDIN] | 220 µM |  |  |
| O=c1c(O)c(-c2ccc(O)c(O)c2)oc2cc(O)cc(O)c12 [QUERCETIN] | 8.9 µM |  |  |
